Laboratory results: US6737383B1, “Herbicidal oxadiazolidines” (priority 1999, dated 2004)

Legend:
[1] = test system: blackgrass; experiment: Test B pre/postemergence blackgrass; format: in vivo, Alopecurus myosuroides
Outline: (§1)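 Response is a visual 0-to-10 score relative to untreated plants, where 0 means no effect and 10 means complete control, taken twelve to sixteen days after application. Treatments went onto soil at planting and onto foliage of 1- to 4-leaf plants, using a surfactant-containing non-phytotoxic solvent.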

[2] = test system: cocklebur; experiment: Test B pre/postemergence cocklebur; format: in vivo, Xanthium strumarium
Outline: as §1

[3] = test system: giant foxtail; experiment: Test B pre/postemergence giant foxtail; format: in vivo, Setaria faberii
Outline: as §1

[4] = test system: morningglory; experiment: Test B pre/postemergence morningglory; format: in vivo, Ipomoea hederacea
Outline: as §1

[5] = test system: pigweed; experiment: Test B pre/postemergence pigweed; format: in vivo, Amaranthus retroflexus
Outline: as §1

[6] = test system: rape; experiment: Test B pre/postemergence rape; format: in vivo, Brassica napus
Outline: as §1

[7] = test system: soybean; experiment: Test B pre/postemergence soybean; format: in vivo, Glycine max
Outline: as §1

[8] = test system: sugar beet; experiment: Test B pre/postemergence sugar beet; format: in vivo, Beta vulgaris
Outline: as §1

[9] = test system: velvetleaf; experiment: Test B pre/postemergence velvetleaf; format: in vivo, Abutilon theophrasti
Outline: as §1

[10] = test system: wheat; experiment: Test B pre/postemergence wheat; format: in vivo, Triticum aestivum
Outline: as §1

[11] = test system: wild oat; experiment: Test B pre/postemergence wild oat; format: in vivo, Avena fatua
Outline: as §1

[12] = test system: purple nutsedge; experiment: Test B pre/postemergence purple nutsedge; format: in vivo, Cyperus rotundus
Outline: as §1

[13] = test system: rice; experiment: Test B flood test rice; format: in vivo, Oryza sativa
Outline: (§2)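 Each value is a visual injury score relative to controls, with 10 meaning complete control and 0 no effect. Evaluation took place twelve to sixteen days after the 2-leaf-stage plants were treated and kept in the greenhouse.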

[14] = test system: smallflower flatsedge; experiment: Test B flood test smallflower flatsedge; format: in vivo, Cyperus difformis
Outline: as §2

[15] = test system: duck salad; experiment: Test B flood test duck salad; format: in vivo, Heteranthera limosa
Outline: as §2

[16] = test system: bamyardgrass; experiment: Test B flood test barnyardgrass; format: in vivo, Echinochloa crus-galli
Outline: as §2

[17] = Postemergence, Rate 62 g/ha, scale of 0 to 10, 0 is no effect, 10 is complete control
[18] = Postemergence, Rate 125 g/ha, scale 0 to 10, 0 is no effect, 10 is complete control
[19] = Postemergence, Rate 500 g/ha, scale 0 to 10, 0 is no effect, 10 is complete control
[20] = Preemergence, Rate 62 g/ha, scale of 0 to 10 where 0 is no effect and 10 is complete control
[21] = Preemergence, Rate 125 g/ha, scale 0 to 10, 0 is no effect, 10 is complete control
[22] = Preemergence, Rate 500 g/ha, scale of 0 to 10 where 0 is no effect and 10 is complete control
[23] = Rate 250 g/ha, Postemergence, scale of 0 to 10 where 0 is no effect and 10 is complete control
[24] = Rate 62 g/ha, flood test species, Pre-emergence, visual evaluation after twelve to sixteen days
[25] = Rate 125 g/ha, under heading Pre-emergence, flood test species, visual evaluation after twelve to sixteen days
[26] = Rate 250 g/ha, Pre-emergence (flood test species), scale 0 to 10, 0 is no effect, 10 is complete control
[27] = Rate 500 g/ha, Pre-emergence section of Table B, 0 to 10 scale (0 no effect, 10 complete control)

In the case of `CC(C)N(C(=O)n1oc(=O)n(CCC2OCCCO2)c1=O)c1ccc(Cl)cc1` [Compound 532], the “Blackgrass plant response rating” value [1, 17] is reported as 0, the “Blackgrass plant response rating” value [1, 18] is reported as 0 and the “Plant response rating, Blackgrass” value [1, 19] is reported as 0. For the same compound, the “Plant response rating, Blackgrass” value [1, 20] was 0, the “Blackgrass plant response rating” value [1, 21] was 0 and the “Blackgrass plant response rating (0 to 10 scale)” value ([1]; Preemergence, Rate 250 g/ha) was 0. For the same compound, the “Blackgrass plant response rating” value [1, 22] was 0, the “Plant response rating, Blackgrass” value [1, 23] was 0 and the “Cocklebur plant response rating” value [2, 17] was 0. For the same compound, the “Cocklebur plant response rating” value [2, 18] was 0, the “Plant response rating, Cocklebur” value [2, 19] was 4 and the “Plant response rating, Cocklebur” value [2, 20] was 0. For the same compound, the “Cocklebur plant response rating” value [2, 21] was 0, the “Cocklebur plant response rating (0 to 10 scale)” value ([2]; Preemergence, Rate 250 g/ha) was 0 and the “Cocklebur plant response rating” value [2, 22] was 0. For the same compound, the “Plant response rating, Cocklebur” value [2, 23] was 2, the “Giant foxtail plant response rating” value [3, 17] was 0 and the “Giant foxtail plant response rating” value [3, 18] was 4. The “Plant response rating, Giant foxtail” value [3, 19] was 8, the “Plant response rating, Giant foxtail” value [3, 20] was 10 and the “Giant foxtail plant response rating” value [3, 21] was 10. The “Giant foxtail plant response rating (0 to 10 scale)” value ([3]; Preemergence, Rate 250 g/ha) was 10, the “Giant foxtail plant response rating” value [3, 22] was 10 and the “Plant response rating, Giant foxtail” value [3, 23] was 4. The “Morningglory plant response rating” value [4, 17] was 0, the “Morningglory plant response rating” value [4, 18] was 3 and the “Plant response rating, Morningglory” value [4, 19] was 5. The “Plant response rating, Morningglory” value [4, 20] was 0, the “Morningglory plant response rating” value [4, 21] was 0 and the “Morningglory plant response rating (0 to 10 scale)” value ([4]; Preemergence, Rate 250 g/ha) was 0. For the same compound, the “Morningglory plant response rating” value [4, 22] was 0, the “Plant response rating, Morningglory” value [4, 23] was 5 and the “Redroot pigweed plant response rating” value [5, 17] was 0. For the same compound, the “Redroot pigweed plant response rating” value [5, 18] was 0, the “Plant response rating, Redroot pigweed” value [5, 19] was 2 and the “Plant response rating, Redroot pigweed” value [5, 20] was 0. For the same compound, the “Redroot pigweed plant response rating” value [5, 21] was 0, the “Redroot pigweed plant response rating (0 to 10 scale)” value ([5]; Preemergence, Rate 250 g/ha) was 0 and the “Redroot pigweed plant response rating” value [5, 22] was 0. For the same compound, the “Plant response rating, Redroot pigweed” value [5, 23] was 0, the “Rape plant response rating” value [6, 17] was 0 and the “Rape plant response rating” value [6, 18] was 0. The “Plant response rating, Rape” value [6, 19] was 2, the “Plant response rating, Rape” value [6, 20] was 0 and the “Rape plant response rating” value [6, 21] was 0. For the same compound, the “Rape plant response rating (0 to 10 scale)” value ([6]; Preemergence, Rate 250 g/ha) was 0, the “Rape plant response rating” value [6, 22] was 0 and the “Plant response rating, Rape” value [6, 23] was 2. For the same compound, the “Soybean plant response rating” value [7, 17] was 0, the “Soybean plant response rating” value [7, 18] was 2 and the “Plant response rating, Soybean” value [7, 19] was 5. For the same compound, the “Plant response rating, Soybean” value [7, 20] was 0, the “Soybean plant response rating” value [7, 21] was 0 and the “Soybean plant response rating (0 to 10 scale)” value ([7]; Preemergence, Rate 250 g/ha) was 0. For the same compound, the “Soybean plant response rating” value [7, 22] was 0, the “Plant response rating, Soybean” value [7, 23] was 5 and the “Sugarbeets plant response rating” value [8, 17] was 0. The “Sugarbeets plant response rating” value [8, 18] was 0, the “Plant response rating, Sugarbeets” value [8, 19] was 0 and the “Plant response rating, Sugarbeets” value [8, 20] was 0. The “Sugarbeets plant response rating” value [8, 21] was 2, the “Sugarbeets plant response rating (0 to 10 scale)” value ([8]; Preemergence, Rate 250 g/ha) was 2 and the “Sugarbeets plant response rating” value [8, 22] was 3. For the same compound, the “Plant response rating, Sugarbeets” value [8, 23] was 0, the “Velvetleaf plant response rating” value [9, 17] was 0 and the “Velvetleaf plant response rating” value [9, 18] was 0. For the same compound, the “Plant response rating, Velvetleaf” value [9, 19] was 2, the “Plant response rating, Velvetleaf” value [9, 20] was 0 and the “Velvetleaf plant response rating” value [9, 21] was 0. The “Velvetleaf plant response rating (0 to 10 scale)” value ([9]; Preemergence, Rate 250 g/ha) was 0, the “Velvetleaf plant response rating” value [9, 22] was 4 and the “Plant response rating, Velvetleaf” value [9, 23] was 2. For the same compound, the “Wheat plant response rating” value [10, 17] was 0, the “Wheat plant response rating” value [10, 18] was 0 and the “Plant response rating, Wheat” value [10, 19] was 0. The “Plant response rating, Wheat” value [10, 20] was 0, the “Wheat plant response rating” value [10, 21] was 0 and the “Wheat plant response rating (0 to 10 scale)” value ([10]; Preemergence, Rate 250 g/ha) was 0. The “Wheat plant response rating” value [10, 22] was 0, the “Plant response rating, Wheat” value [10, 23] was 0 and the “Wild oats plant response rating” value [11, 17] was 0. The “Wild oats plant response rating” value [11, 18] was 0, the “Plant response rating, Wild oats” value [11, 19] was 0 and the “Plant response rating, Wild oats” value [11, 20] was 0. For the same compound, the “Wild oats plant response rating” value [11, 21] was 0, the “Wild oats plant response rating (0 to 10 scale)” value ([11]; Preemergence, Rate 250 g/ha) was 0 and the “Wild oats plant response rating” value [11, 22] was 0. The “Plant response rating, Wild oats” value [11, 23] was 0, the “Nutsedge plant response rating” value [12, 17] was 4 and the “Nutsedge plant response rating” value [12, 18] was 0. The “Plant response rating, Nutsedge” value [12, 20] was 0, the “Nutsedge plant response rating” value [12, 21] was 0 and the “Nutsedge plant response rating (0 to 10 scale)” value ([12]; Preemergence, Rate 250 g/ha) was 0. The “Nutsedge plant response rating” value [12, 22] was 0, the “Plant response rating, Rice (0 to 10 scale, 0 is no effect, 10 is complete control)” value [13, 24] was 0 and the “Rice plant response rating (0 to 10 scale, 0 is no effect, 10 is complete control)” value [13, 25] was 1. For the same compound, the “Rice plant response rating” value [13, 26] was 9, the “Rice plant response rating” value [13, 27] was 8 and the “Plant response rating, S. Flatsedge (0 to 10 scale, 0 is no effect, 10 is complete control)” value [14, 24] was 9. For the same compound, the “S. Flatsedge plant response rating (0 to 10 scale, 0 is no effect, 10 is complete control)” value [14, 25] was 8, the “S. Flatsedge plant response rating” value [14, 26] was 9 and the “S. Flatsedge plant response rating” value [14, 27] was 9. The “Plant response rating, Ducksalad (0 to 10 scale, 0 is no effect, 10 is complete control)” value [15, 24] was 8, the “Ducksalad plant response rating (0 to 10 scale, 0 is no effect, 10 is complete control)” value [15, 25] was 8 and the “Ducksalad plant response rating” value [15, 26] was 9. For the same compound, the “Ducksalad plant response rating” value [15, 27] was 9, the “Plant response rating, Barnyardgrass (0 to 10 scale, 0 is no effect, 10 is complete control)” value [16, 24] was 0 and the “Barnyardgrass plant response rating (0 to 10 scale, 0 is no effect, 10 is complete control)” value [16, 25] was 0. For the same compound, the “Barnyardgrass plant response rating” value [16, 26] was 9 and the “Barnyardgrass plant response rating” value [16, 27] was 9.
